From patent publication US7786141B2 (Vertex Pharmaceuticals Incorporated, priority 2004, dated 2010)

Assays:
[1] = target: T1, M1 muscarinic receptor (Homo sapiens, UniProt P11229); assay: Functional mobilization of intracellular calcium (FLIPR) in M1-CHO cells; assay type: cell-based; conditions: Table 4; for Emax: 100% efficacy is the maximum response obtained with the Carbachol control; for M1 Activity: modulating M1 receptor
T1 construct: expressed in transfected cells; host or cells: CHO (M1-CHO)
T1 sequence (P11229 1-460): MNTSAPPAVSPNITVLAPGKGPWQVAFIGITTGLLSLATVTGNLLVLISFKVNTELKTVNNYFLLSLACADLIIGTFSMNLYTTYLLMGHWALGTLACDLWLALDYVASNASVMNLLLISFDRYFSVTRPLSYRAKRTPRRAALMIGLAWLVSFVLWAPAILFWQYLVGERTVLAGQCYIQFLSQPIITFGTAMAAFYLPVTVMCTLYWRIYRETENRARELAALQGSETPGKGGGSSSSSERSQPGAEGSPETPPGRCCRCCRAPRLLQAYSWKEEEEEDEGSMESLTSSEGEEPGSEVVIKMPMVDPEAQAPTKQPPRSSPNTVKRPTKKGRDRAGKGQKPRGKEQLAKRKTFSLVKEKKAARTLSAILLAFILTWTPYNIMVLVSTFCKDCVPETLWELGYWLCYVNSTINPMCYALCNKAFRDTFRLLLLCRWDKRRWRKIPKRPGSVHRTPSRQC
How it was run: (§1)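 Measured via Fluo-3 fluorescence on a FLIPR, CHO cells with either muscarinic subtype received compound in 0.5% DMSO. Antagonism was assessed after 15 min pre-incubation followed by carbachol at each subtype's EC80; agonism from compound addition alone.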

[2] = target: T2, M4 muscarinic receptor (Homo sapiens, UniProt P08173); assay: Functional mobilization of intracellular calcium (FLIPR) in M4-CHO cells; assay type: cell-based; conditions: Table 4; for Emax: 100% efficacy is the maximum response obtained with the Carbachol control; for M4 Activity: modulating M4 receptor
T2 construct: expressed in transfected cells; host or cells: CHO (M4-CHO)
T2 sequence (P08173 1-479): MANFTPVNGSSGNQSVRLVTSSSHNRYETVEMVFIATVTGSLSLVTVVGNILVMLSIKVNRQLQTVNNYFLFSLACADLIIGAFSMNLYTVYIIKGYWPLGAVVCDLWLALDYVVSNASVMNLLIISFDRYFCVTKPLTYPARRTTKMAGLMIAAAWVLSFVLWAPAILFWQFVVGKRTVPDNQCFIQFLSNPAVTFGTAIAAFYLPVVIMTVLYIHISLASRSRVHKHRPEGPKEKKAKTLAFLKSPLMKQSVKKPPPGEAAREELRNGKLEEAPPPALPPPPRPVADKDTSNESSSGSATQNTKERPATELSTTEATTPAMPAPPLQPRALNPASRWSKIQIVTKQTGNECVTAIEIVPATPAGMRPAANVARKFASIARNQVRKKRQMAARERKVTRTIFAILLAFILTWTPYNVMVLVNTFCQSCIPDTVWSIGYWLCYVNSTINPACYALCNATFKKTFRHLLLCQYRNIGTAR
How it was run: as §1

CCO/N=C1\CC2(CCN(CC3CCCCC3)CC2)c2cc(Cl)ccc21 [compound 702]
Emax [1]: 25 to 100%
M1 Activity [1]: x (activity was measured to be greater than 5.0 μM)
Emax [2]: 25 to 100%
M4 Activity [2]: x (activity was measured to be greater than 5.0 μM)

CC(=O)N[C@H]1CC2(CCN(C3CCN(C)CC3)CC2)c2ccccc21 [compound 703]
Emax [1]: < 25%
M1 Activity [1]: x (activity was measured to be greater than 5.0 μM)
Emax [2]: < 25%
M4 Activity [2]: x (activity was measured to be greater than 5.0 μM)

CC(C)OC(=O)N1CCCC(N2CCC3(CC2)CN(C(=O)N(C)C)c2ccc(F)cc23)CC1 (stereo not shown) [compound 704]
Emax [1]: 25 to 100%
M1 Activity [1]: xxx (activity was measured to be less than 2.0 μM)
Emax [2]: 25 to 100%
M4 Activity [2]: xxx (activity was measured to be less than 2.0 μM)

Fc1ccc2c(c1)C1(CCN(C3CC4CCC3O4)CC1)CN2 (stereo not shown) [compound 705]
Emax [1]: < 25%
M1 Activity [1]: x (activity was measured to be greater than 5.0 μM)
Emax [2]: < 25%
M4 Activity [2]: x (activity was measured to be greater than 5.0 μM)

CCCOC(=O)N1CC[C@@H](CN2CCC3(CC2)CN(C(=O)N(C)C)c2ccc(F)cc23)C1 [compound 706]
Emax [1]: 25 to 100%
M1 Activity [1]: xxx (activity was measured to be less than 2.0 μM)
Emax [2]: 25 to 100%
M4 Activity [2]: xxx (activity was measured to be less than 2.0 μM)

CC(=O)N[C@H]1CC2(CCN(C3CCN(c4cccc(F)n4)CC3)CC2)c2ccccc21 [compound 708]
Emax [1]: 25 to 100%
M1 Activity [1]: xxx (activity was measured to be less than 2.0 μM)
Emax [2]: 25 to 100%
M4 Activity [2]: xxx (activity was measured to be less than 2.0 μM)

CC(=O)NC1CCC2(CCN(CCC3CCOCC3)CC2)c2ccccc21 (stereo not shown) [compound 709]
Emax [1]: 25 to 100%
M1 Activity [1]: xxx (activity was measured to be less than 2.0 μM)
Emax [2]: < 25%
M4 Activity [2]: xxx (activity was measured to be less than 2.0 μM)

CC(=O)N1CC2(CCN(C3CCN(c4nn[nH]n4)CC3)CC2)c2ccccc21 [compound 710]
Emax [1]: 25 to 100%
M1 Activity [1]: x (activity was measured to be greater than 5.0 μM)
Emax [2]: 25 to 100%
M4 Activity [2]: x (activity was measured to be greater than 5.0 μM)

CN(C)C(=O)N1CC2(CCN(C3CCN(c4ccccc4F)CC3)CC2)c2cc(F)ccc21 [compound 711]
Emax [1]: 25 to 100%
M1 Activity [1]: xx (activity was measured to be between 2.0 μM and 5.0 μM)
Emax [2]: < 25%
M4 Activity [2]: x (activity was measured to be greater than 5.0 μM)

CCOC(=O)N1CCC(N2CCC3(CC2)CN(C(=O)NCc2ccccc2)c2ccccc23)CC1 [compound 712]
Emax [1]: 25 to 100%
M1 Activity [1]: xxx (activity was measured to be less than 2.0 μM)
Emax [2]: 25 to 100%
M4 Activity [2]: xxx (activity was measured to be less than 2.0 μM)

CCOC(=O)N1CCC(N2CCC3(CC2)CN(C(=O)CCOC)c2ccc(F)cc23)CC1 [compound 714]
Emax [1]: > 100%
M1 Activity [1]: xxx (activity was measured to be less than 2.0 μM)
Emax [2]: 25 to 100%
M4 Activity [2]: xxx (activity was measured to be less than 2.0 μM)

O=C1CC2(CCN(C3CCCCC3)CC2)c2cc(Cl)ccc21 [compound 715]
Emax [1]: 25 to 100%
M1 Activity [1]: xxx (activity was measured to be less than 2.0 μM)
Emax [2]: 25 to 100%
M4 Activity [2]: xxx (activity was measured to be less than 2.0 μM)

CC(=O)NC1CCC2(CCN(C3CCCCC3)CC2)c2ccccc21 (stereo not shown) [compound 716]
Emax [1]: 25 to 100%
M1 Activity [1]: xxx (activity was measured to be less than 2.0 μM)
Emax [2]: 25 to 100%
M4 Activity [2]: xxx (activity was measured to be less than 2.0 μM)

CCOC(=O)N1CCC(N2CCC3(CC2)CN(c2ccccc2OC)c2ccc(F)cc23)CC1 [compound 717]
Emax [1]: 25 to 100%
M1 Activity [1]: xxx (activity was measured to be less than 2.0 μM)
Emax [2]: 25 to 100%
M4 Activity [2]: xxx (activity was measured to be less than 2.0 μM)

CN(C)C(=O)N1CC2(CCN(C3CCN(C(=O)c4ccccn4)CC3)CC2)c2cc(F)ccc21 [compound 718]
Emax [1]: < 25%
M1 Activity [1]: x (activity was measured to be greater than 5.0 μM)
Emax [2]: < 25%
M4 Activity [2]: x (activity was measured to be greater than 5.0 μM)

CCOC(=O)N1CCC(N2CCC3(CC2)CN(C(C)=O)c2ccc(S(C)(=O)=O)cc23)CC1 [compound 719]
Emax [1]: 25 to 100%
M1 Activity [1]: xxx (activity was measured to be less than 2.0 μM)
Emax [2]: < 25%
M4 Activity [2]: x (activity was measured to be greater than 5.0 μM)

CN(C)C(=O)N1CC2(CCN(C3CCN(c4ccccn4)CC3)CC2)c2cc(F)ccc21 [compound 720]
Emax [1]: 25 to 100%
M1 Activity [1]: xx (activity was measured to be between 2.0 μM and 5.0 μM)
Emax [2]: 25 to 100%
M4 Activity [2]: xxx (activity was measured to be less than 2.0 μM)

CCCCNC(=O)N1CC2(CCN(C3CCN(C(=O)OCC)CC3)CC2)c2ccccc21 [compound 721]
Emax [1]: 25 to 100%
M1 Activity [1]: xxx (activity was measured to be less than 2.0 μM)
Emax [2]: 25 to 100%
M4 Activity [2]: xxx (activity was measured to be less than 2.0 μM)

CCOC(=O)N1CCC(CN2CCC3(CC2)CN(C(C)=O)c2c(F)cc(F)cc23)CC1 [compound 722]
Emax [1]: 25 to 100%
M1 Activity [1]: xxx (activity was measured to be less than 2.0 μM)
Emax [2]: 25 to 100%
M4 Activity [2]: xxx (activity was measured to be less than 2.0 μM)

CS(=O)(=O)N[C@H]1CCC2(CCN(C3CCCCCC3)CC2)c2ccccc21 [compound 723]
Emax [1]: 25 to 100%
M1 Activity [1]: xxx (activity was measured to be less than 2.0 μM)
Emax [2]: 25 to 100%
M4 Activity [2]: xxx (activity was measured to be less than 2.0 μM)

CC(=O)N1CC2(CCN(C3CCN(C(=O)OCC4CC4)CC3)CC2)c2ccccc21 [compound 724]
Emax [1]: 25 to 100%
M1 Activity [1]: xx (activity was measured to be between 2.0 μM and 5.0 μM)
Emax [2]: < 25%
M4 Activity [2]: x (activity was measured to be greater than 5.0 μM)

O=C(N[C@H]1CC2(CCN(CCC3CC4CC[C@@H]3C4)CC2)c2ccccc21)N1CCCC1 (stereo partly shown) [compound 726]
Emax [1]: < 25%
M1 Activity [1]: x (activity was measured to be greater than 5.0 μM)
Emax [2]: < 25%
M4 Activity [2]: x (activity was measured to be greater than 5.0 μM)

CN(C)C(=O)N1CC2(CCN(C3CCN(C(=O)C4(C(F)(F)F)CC4)CC3)CC2)c2cc(F)ccc21 [compound 727]
Emax [1]: 25 to 100%
M1 Activity [1]: x (activity was measured to be greater than 5.0 μM)
Emax [2]: 25 to 100%
M4 Activity [2]: xxx (activity was measured to be less than 2.0 μM)

CCOC(=O)N1CCC(N2CCC3(CC2)CN(C(C)=O)c2c(-c4cccnc4)cccc23)CC1 [compound 728]
Emax [1]: 25 to 100%
M1 Activity [1]: xx (activity was measured to be between 2.0 μM and 5.0 μM)
Emax [2]: < 25%
M4 Activity [2]: x (activity was measured to be greater than 5.0 μM)

CN(C)C(=O)N1CC2(CCN(C3CCN(C(=O)CC#N)CC3)CC2)c2cc(F)ccc21 [compound 729]
Emax [1]: < 25%
M1 Activity [1]: x (activity was measured to be greater than 5.0 μM)
Emax [2]: < 25%
M4 Activity [2]: x (activity was measured to be greater than 5.0 μM)

CCOC(=O)N1CCC(N2CCC3(CC2)CN(C(=O)[C@H](O)CC)c2ccc(F)cc23)CC1 [compound 730]
Emax [1]: 25 to 100%
M1 Activity [1]: xxx (activity was measured to be less than 2.0 μM)
Emax [2]: 25 to 100%
M4 Activity [2]: xxx (activity was measured to be less than 2.0 μM)

CC(=O)NC1CCC2(CCN(CCC3CCCN(C(=O)OC(C)C)C3)CC2)c2ccccc21 (stereo not shown) [compound 731]
Emax [1]: < 25%
M1 Activity [1]: xxx (activity was measured to be less than 2.0 μM)
Emax [2]: < 25%
M4 Activity [2]: x (activity was measured to be greater than 5.0 μM)

O=C1CC2(CCN([C@@H]3C[C@H]4CC[C@@H]3C4)CC2)c2ccccc21 [compound 732]
Emax [1]: 25 to 100%
M1 Activity [1]: x (activity was measured to be greater than 5.0 μM)
Emax [2]: 25 to 100%
M4 Activity [2]: xx (activity was measured to be between 2.0 μM and 5.0 μM)
